Results as given in PMC5000766, “Inhibitory Effect of 2,3,5,6-Tetrafluoro-4-[4-(aryl)-1H-1,2,3-triazol-1-yl]benzenesulfonamide Derivatives on HIV Reverse Transcriptase Associated RNase H Activities” (International Journal of Molecular Sciences, 2016).

What was measured:
[1] = target: T1, HIV-1 RT-associated RNase H (Human immunodeficiency virus type 1 group M subtype B, UniProt P04585); assay: HIV-1 RNase H polymerase-independent cleavage assay; format: biochemical; settings: compound concentration required to inhibit the HIV-1 RNase H activity by 50%; recombinant HIV-1 RT
T1 construct: The recombinant HIV-1 RT protein; His tag; made in house; host or cells: E. coli strain M15

human MT-4 cells = assay: Cellular cytotoxicity in MT-4 cells; settings: preliminary finding

SMILES	IC50 [1] [µM]	melting point [°C]	cellular cytotoxicity (human MT-4 cells) [µM]
NCc1cn(-c2ccc(S(N)(=O)=O)cc2)nn1 [Compound 9a]	> 100		
NS(=O)(=O)c1ccc(-n2cc(CO)nn2)cc1 [Compound 9b]	> 100	195 to 197	
NS(=O)(=O)c1ccc(-n2cc(-c3ccccc3)nn2)cc1 [Compound 9c]	> 100	260 to 261	
CCCCCc1ccc(-c2cn(-c3ccc(S(N)(=O)=O)cc3)nn2)cc1 [Compound 9d]		253 to 256	
NS(=O)(=O)c1c(F)c(F)c(-n2cc(CO)nn2)c(F)c1F [Compound 10b]		133 to 134	
CCCCCc1ccc(-c2cn(-c3c(F)c(F)c(S(N)(=O)=O)c(F)c3F)nn2)cc1 [Compound 10d]		197 to 198	> 7
CCOC(=O)C(=O)CC(=O)/C=C/c1cccn1Cc1ccccc1Cl [RDS1759, reference compound]	7 ± 1.5		
